Target: T1, recombinant human ALX receptor (Homo sapiens, UniProt P25090)
T1 construct: expressed in transfected cells; host or cells: HEK293 (HEK293-hALXR-Gα16)
T1 sequence (P25090 1-351): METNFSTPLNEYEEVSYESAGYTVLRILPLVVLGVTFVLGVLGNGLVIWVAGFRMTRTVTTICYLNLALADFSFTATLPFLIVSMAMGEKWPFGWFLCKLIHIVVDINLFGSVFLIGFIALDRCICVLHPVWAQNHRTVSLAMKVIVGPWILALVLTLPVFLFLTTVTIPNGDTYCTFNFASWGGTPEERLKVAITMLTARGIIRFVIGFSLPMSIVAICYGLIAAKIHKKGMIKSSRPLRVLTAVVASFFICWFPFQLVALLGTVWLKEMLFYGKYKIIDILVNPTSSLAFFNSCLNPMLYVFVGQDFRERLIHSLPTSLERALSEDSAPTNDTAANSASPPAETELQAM
Test: Intracellular calcium measurements (FLIPR), ALX receptor agonistic activity
Format: cell-based
Details: HEK293-hALXR-Gα16 cells, Fluo-4 calcium signal, normalized to WKYMVm 10 nM
Summary of the method: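 HEK293 cells co-expressing human ALX receptor and Gα16 were loaded with 1 μM Fluo-4 AM for 60 min at 37° C., then exposed to serially diluted compounds on FLIPR Tetra. Peak fluorescence above baseline (ex 488/em 540 nm) was normalized to 10 nM WKYMVm as high control.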

| SMILES | EC50 |
| --- | --- |
| O=C(NC(Cc1ccc(OC(F)(F)F)cc1)c1nc2ccccc2[nH]1)NC1CN2CCC1CC2 (stereo not shown) [Example 141, 1-(1-(1H-Benzo[d]imidazol-2-yl)-2-(4-(trifluoromethoxy)phenyl)ethyl)-3-(quinuclidin-3-yl)urea] | 834 nM |
| COc1ccc(C[C@@H](NC(=O)NCCN2CCN(C(=O)OC(C)(C)C)CC2)c2nc3ccccc3[nH]2)cc1 [Example 144, (R)-tert-Butyl 4-(2-(3-(1-(1H-benzo[d]imidazol-2-yl)-2-(4-methoxyphenyl)ethyl)ureido)ethyl)piperazine-1-carboxylate] | 947 nM |
| COc1ccc(C[C@@H](NC(=O)NCC2CCN(C(=O)OC(C)(C)C)CC2)c2nc3ccccc3[nH]2)cc1 [Example 146, (R)-tert-Butyl 4-((3-(1-(1H-benzo[d]imidazol-2-yl)-2-(4-methoxyphenyl)ethyl)ureido)methyl)piperidine-1-carboxylate] | 512 nM |
| COc1ccc(C[C@@H](NC(=O)NCCN2CCNCC2)c2nc3ccccc3[nH]2)cc1 [Example 150, (R)-1-(1-(1H-Benzo[d]imidazol-2-yl)-2-(4-methoxyphenyl)ethyl)-3-(2-(piperazin-1-yl)ethyl)urea] | 209 nM |
| COc1ccc(C[C@@H](NC(=O)NCCN2CCN(C)CC2)c2nc3ccccc3[nH]2)cc1 [Example 151, (R)-1-(1-(1H-Benzo[d]imidazol-2-yl)-2-(4-methoxyphenyl)ethyl)-3-(2-(4-methylpiperazin-1-yl)ethyl)urea] | 572 nM |
| COc1ccc(C[C@@H](NC(=O)NC2CN3CCC2CC3)c2nc3ccc(C#N)cc3[nH]2)cc1 (stereo partly drawn) [Example 154, 1-((R)-1-(6-Cyano-1H-benzo[d]imidazol-2-yl)-2-(4-methoxyphenyl)ethyl)-3-(quinuclidin-3-yl)urea] | 6.8 nM |
| COc1ccc(C[C@@H](NC(=O)NCCC2CCN(C(=O)OC(C)(C)C)CC2)c2nc3ccccc3[nH]2)cc1 [Example 155, (R)-tert-Butyl 4-(2-(3-(1-(1H-benzo[d]imidazol-2-yl)-2-(4-methoxyphenyl)ethyl)ureido)ethyl)piperidine-1-carboxylate] | 489 nM |
| COc1ccc(C[C@@H](NC(=O)NCCC2CCN(C(C)=O)CC2)c2nc3ccccc3[nH]2)cc1 [Example 159, (R)-1-(1-(1H-Benzo[d]imidazol-2-yl)-2-(4-methoxyphenyl)ethyl)-3-(2-(1-acetylpiperidin-4-yl)ethyl)urea] | 876 nM |
| COC(=O)N1CC2CCC1CN2C(=O)N[C@H](Cc1ccc(OC)cc1)c1nc2ccccc2[nH]1 (stereo partly drawn) [Example 162, Methyl 5-(((R)-1-(1H-benzo[d]imidazol-2-yl)-2-(4-methoxyphenyl)ethyl)carbamoyl)-2,5-diazabicyclo[2.2.2]octane-2-carboxylate] | 866 nM |
| COc1ccc(C[C@@H](NC(=O)NC23CCC(O)(CC2)CC3)c2nc3ccccc3[nH]2)cc1 [Example 166, (R)-1-(1-(1H-Benzo[d]imidazol-2-yl)-2-(4-methoxyphenyl)ethyl)-3-(4-hydroxybicyclo[2.2.2]octan-1-yl)urea] | 2.1 nM |
| COc1ccc(C[C@@H](NC(=O)N2CC3CCC2CN3C)c2nc3ccccc3[nH]2)cc1 (stereo partly drawn) [Example 168, N—((R)-1-(1H-Benzo[d]imidazol-2-yl)-2-(4-methoxyphenyl)ethyl)-5-methyl-2,5-diazabicyclo[2.2.2]octane-2-carboxamide] | 87 nM |
| COc1ccc(CC(NC(=O)Nc2ccccc2)c2nc3ccccc3[nH]2)cc1 (stereo not shown) [Example 169, 1-(1-(1H-Benzo[d]imidazol-2-yl)-2-(4-methoxyphenyl)ethyl)-3-phenylurea] | 51 nM |

Results, then the compound that gave them:

| EC50 | SMILES |
| --- | --- |
| 414 nM | COC(=O)N1CCC(NC(=O)N[C@H](Cc2ccc(OC)cc2)c2nc3ccccc3[nH]2)CC1 [Example 139, (R)-Methyl 4-(3-(1-(1H-benzo[d]imidazol-2-yl)-2-(4-methoxyphenyl)ethyl)ureido)piperidine-1-carboxylate] |
| 62 nM | COc1ccc(C[C@@H](NC(=O)N[C@@H]2CCCN(C(C)=O)C2)c2nc3ccccc3[nH]2)cc1 [Example 140, 1-((R)-1-(1H-Benzo[d]imidazol-2-yl)-2-(4-methoxyphenyl)ethyl)-3-((R)-1-acetylpiperidin-3-yl)urea] |
| 306 nM | COc1ccc(C[C@@H](NC(=O)N[C@@H]2CCN(C(C)=O)C2)c2nc3ccccc3[nH]2)cc1 [Example 142, 1-((R)-1-(1H-Benzo[d]imidazol-2-yl)-2-(4-methoxyphenyl)ethyl)-3-((R)-1-acetylpyrrolidin-3-yl)urea] |
| 108 nM | COc1ccc(C[C@@H](NC(=O)NC2CCN(S(C)(=O)=O)CC2)c2nc3ccccc3[nH]2)cc1 [Example 143, (R)-1-(1-(1H-Benzo[d]imidazol-2-yl)-2-(4-methoxyphenyl)ethyl)-3-(1-(methylsulfonyl)piperidin-4-yl)urea] |
| 493 nM | COc1ccc(C[C@@H](NC(=O)NCC2CCN(C)CC2)c2nc3ccccc3[nH]2)cc1 [Example 147, (R)-1-(1-(1H-Benzo[d]imidazol-2-yl)-2-(4-methoxyphenyl)ethyl)-3-((1-methylpiperidin-4-yl)methyl)urea] |
| 18 nM | COc1ccc(C[C@@H](NC(=O)N[C@H]2CC[C@H](O)CC2)c2nc3cc([N+](=O)[O-])ccc3[nH]2)cc1 [Example 148, 1-(trans-4-Hydroxycyclohexyl)-3-((R)-2-(4-methoxyphenyl)-1-(5-nitro-1H-benzo[d]imidazol-2-yl)ethyl)urea] |
| 168 nM | COc1ccc(C[C@@H](NC(=O)NCC2CCNCC2)c2nc3ccccc3[nH]2)cc1 [Example 149, (R)-1-(1-(1H-Benzo[d]imidazol-2-yl)-2-(4-methoxyphenyl)ethyl)-3-(piperidin-4-ylmethyl)urea] |
| 6.2 nM | COc1ccc(C[C@@H](NC(=O)N[C@H]2CC[C@H](O)CC2)c2nc3ccc(C#N)cc3[nH]2)cc1 [Example 152, 1-((R)-1-(6-Cyano-1H-benzo[d]imidazol-2-yl)-2-(4-methoxyphenyl)ethyl)-3-(trans-4-hydroxycyclohexyl)urea] |
| 8.7 nM | COc1ccc(C[C@@H](NC(=O)NC2CC(C)(C)NC(C)(C)C2)c2nc3ccc(C#N)cc3[nH]2)cc1 [Example 153, (R)-1-(1-(6-Cyano-1H-benzo[d]imidazol-2-yl)-2-(4-methoxyphenyl)ethyl)-3-(2,2,6,6-tetramethylpiperidin-4-yl)urea] |
| 94 nM | COc1ccc(C[C@@H](NC(=O)NCCC2CCNCC2)c2nc3ccccc3[nH]2)cc1 [Example 156, (R)-1-(1-(1H-Benzo[d]imidazol-2-yl)-2-(4-methoxyphenyl)ethyl)-3-(2-(piperidin-4-yl)ethyl)urea] |
| 187 nM | COc1ccc(C[C@@H](NC(=O)NC2CCN(S(C)(=O)=O)C2)c2nc3ccccc3[nH]2)cc1 (stereo partly drawn) [Example 157, 1-((R)-1-(1H-Benzo[d]imidazol-2-yl)-2-(4-methoxyphenyl)ethyl)-3-(1-(methylsulfonyl)pyrrolidin-3-yl)urea] |
| 158 nM | COC(=O)N1CCC(NC(=O)N[C@H](Cc2ccc(OC)cc2)c2nc3ccccc3[nH]2)C1 (stereo partly drawn) [Example 158, Methyl 3-(3-((R)-1-(1H-benzo[d]imidazol-2-yl)-2-(4-methoxyphenyl)ethyl)ureido)pyrrolidine-1-carboxylate] |
| 151 nM | COc1ccc(C[C@@H](NC(=O)NCCC2CCN(C)CC2)c2nc3ccccc3[nH]2)cc1 [Example 160, (R)-1-(1-(1H-Benzo[d]imidazol-2-yl)-2-(4-methoxyphenyl)ethyl)-3-(2-(1-methylpiperidin-4-yl)ethyl)urea] |

From US9663473B2 (Actelion Pharmaceuticals Ltd, priority 2013, dated 2017)
